Source: ChEMBL document CHEMBL1132921, “Analogues of the potent nonpolyglutamatable antifolate N(alpha)-(4-amino-4-deoxypteroyl)-N(delta)-hemiphthaloyl-L-ornithine (PT523) with modifications in the side chain, p-aminobenzoyl moiety, or 9,10-bridge: synthesis and in vitro antitumor activity” (J Med Chem, 2000)

System: CCRF-CEM
Test: Growth inhibition of CCRF-CEM human leukemic lymphoblasts
Format: functional, cell-based

Row | Compound | IC50 [nM]
1 | CCC(Cc1cnc2nc(N)nc(N)c2n1)c1ccc(C(=O)NC(CCCNC(=O)c2ccccc2C(=O)O)C(=O)O)cc1 (centres undefined) | 1.2
2 | Nc1nc(N)c2nc(CNc3ccc(C(=O)NC(CCSCNC(=O)c4ccccc4C(=O)O)C(=O)O)cc3)cnc2n1 (centres undefined) | 5
3 | Nc1nc(N)c2nc(CCc3ccc(C(=O)NC(CCCNC(=O)c4ccccc4C(=O)O)C(=O)O)cc3)cnc2n1 (centres undefined) | 0.53
4 | CC(Cc1cnc2nc(N)nc(N)c2n1)c1ccc(C(=O)NC(CCCNC(=O)c2ccccc2C(=O)O)C(=O)O)cc1 (centres undefined) | 0.63
5 | Nc1nc(N)c2nc(CNc3ccc(C(=O)NC(CCCNC(=O)c4ccc(C(=O)O)cc4)C(=O)O)cc3)cnc2n1 (centres undefined) | 55
6 | Nc1nc(N)c2nc(CNc3ccc(C(=O)NC(CCCNC(=O)c4ccccc4C(=O)O)C(=O)O)c4ccccc34)cnc2n1 (centres undefined) | 1.2
7 | Nc1nc(N)c2nc(CNc3ccc(C(=O)NC(CCCNC(=O)c4cccc(C(=O)O)c4)C(=O)O)cc3)cnc2n1 (centres undefined) | 7.5
8 | Nc1nc(N)c2nc(CNc3ccc(C(=O)NC(CCNC(=O)c4ccccc4C(=O)O)C(=O)O)cc3)cnc2n1 (centres undefined) | 5.5
9 | CCC(Cc1cnc2nc(N)nc(N)c2n1)(C(=O)OC)c1ccc(C(=O)NC(CCCNC(=O)c2ccccc2C(=O)O)C(=O)O)cc1 (centres undefined) | 54
10 | Nc1nc(N)c2nc(CNc3ccc(C(=O)NC(CSCNC(=O)c4ccccc4C(=O)O)C(=O)O)cc3)cnc2n1 (centres undefined) | 4.4
11 | Nc1nc(N)c2nc(CNc3ccc(C(=O)NC(CNC(=O)c4ccccc4C(=O)O)C(=O)O)cc3)cnc2n1 (centres undefined) | 5.1
12 | Nc1nc(N)c2nc(CNc3ccc(C(=O)NC(CCCCNC(=O)c4ccccc4C(=O)O)C(=O)O)cc3)cnc2n1 (centres undefined) | 2.9
13 | Nc1nc(N)c2nc(CNc3ccc(C(=O)N[C@@H](CCC(=O)O)C(=O)O)cc3)cnc2n1 [AMINOPTERIN] | 4.4
14 | CCC(Cc1cnc2nc(N)nc(N)c2n1)c1ccc(C(=O)N[C@@H](CCC(=O)O)C(=O)O)cc1 (some centres undefined) [EDATREXATE] | 3.3
